The values below are quoted from earlier work in patent US20110252579A1, “METHOD FOR TREATING FABRICS” (priority 2010, published 2011).

Where a name gives a salt, the structure may show the parent alone.

Test system in the first data set: not given
As to conditions: in water.
Consider `OCc1ccccc1` [benzyl alcohol], for which the water solubility result is “about 4%”.

Consider `[Na+].[O-][n+]1ccccc1[S-]` [sodium pyrithione], for which the water solubility entry is given as “about 50%”.

`OCCOc1ccccc1` [2-phenoxyethanol]: the water solubility result is “about 2.67%”.

Take `CC(C)(O)C(Cl)(Cl)Cl` [chlorobutanol, 1,1,1-Trichloro-2-methylpropan-2-ol]: the water solubility result was “about 0.8%”.

Turning to `OCCc1ccccc1` [2-phenylethanol], the water solubility result is given as “about 2%”.

As for `CC1(C)C(=O)N(CO)C(=O)N1CO` [DMDM hydantoin, 1,3-bis(hydroxymethyl)-5,5-dimethyl-2,4-imidazolidinedione], the water solubility result is given as “more than 50%”.

Consider `[H]/N=C(\N/C(=N/[H])NCCCCCCNC(=N)NC(=N)Nc1ccc(Cl)cc1)Nc1ccc(Cl)cc1` [chlorhexidine digluconate salt, 1,1′-hexamethylene bis(5-(p-chlorophenyl)biguanide), reference compound], for which the water solubility result is recorded as “about 70%”.

Turning to `O=[N+]([O-])C(Br)(CO)CO` [Bronopol, 2-bromo-2-nitropropane-1,3-diol], the water solubility result is “about 25%”.

Take `O=[N+]([O-])C1(Br)COCOC1` [Bronidox L, 5-bromo-5-nitro-1,3-dioxane]: the water solubility result is “about 0.46%”.

On to `[H]/N=C(\N/C(=N/[H])NCCCCCCNC(=N)NC(=N)Nc1ccc(Cl)cc1)Nc1ccc(Cl)cc1` [chlorhexidine diacetate salt, 1,1′-hexamethylene bis(5-(p-chlorophenyl)biguanide), reference compound], for which the water solubility result is given as “about 1.8%”.

The subject of a further data set is bacteria.
Conditions: not given
For the compound `CC1(C)C(=O)N(CO)C(=O)N1CO` [DMDM hydantoin, 1,3-bis(hydroxymethyl)-5,5-dimethyl-2,4-imidazolidinedione], the antimicrobial spectrum entry is reported as “mainly effective on bacteria”.

Another data set has as its system typical Gram negative and positive bacteria, fungi and yeasts. As to conditions: level from about 0.001% to about 0.5% by weight of the usage composition.
In the case of `Cn1sc2c(c1=O)CCC2` [Promexal, 2-methyl-4,5-trimethylene-4-isothiazolin-3-one], the “effectiveness against Gram negative and positive bacteria, fungi and yeasts” value is “effective”.

On to `O=c1[nH]sc2ccccc12` [Proxel, 1,2-benzisothiazolin-3-one], for which the “effectiveness against Gram negative and positive bacteria, fungi and yeasts” value is given as “effective”.
